# From patent publication US20220211728A1, “ALKYL-TPP COMPOUNDS FOR MITOCHONDRIA TARGETING AND ANTI-CANCER TREATMENTS” (LUNELLA BIOTECH, INC., priority 2019, published 2022)
# Entries after “also recorded” stand apart in the source; their conditions may differ. Like-named read-outs stand apart in the source and are kept apart here.
# Legend:
# [1] = test system: MCF-7 breast cancer cells; test: mammosphere formation assay (CSC propagation) in MCF-7 cells; assay type: cell-based, human; settings: for IC50: Homo sapiens, MCF7
# Protocol: (§1) The mammosphere assay was performed as follows. A single cell suspension of MCF-7 or MDA-MB-231 cells was prepared using enzymatic (1× Trypsin-EDTA, Sigma Aldrich), and manual disaggregation (25 gauge needle). Cells were then plated at a density of 500 cells/cm^2 in mammosphere medium (DMEM-F12/B27/20-ng/ml EGF/PenStrep) in nonadherent conditions, in culture dishes coated with (2-hydroxyethylmethacrylate) (poly-HEMA, Sigma Aldrich), in the presence of treatments, were required. Cells were grown for 5 days and maintained in a humidified incubator at 37° C. at an atmospheric pressure in 5% (v/v) carbon dioxide/air. After 5 days for culture, spheres >50 μm were counted using an eye piece graticule, and the percentage of cells plated which formed spheres was calculated and is referred to as percentage mammosphere formation. Mammosphere assays were performed in triplicate and repeated three times independently.
# [2] = test system: MCF-7 breast cancer cells; settings: b-TPP, identified in International Application PCT/US2018/062174; read-out: IC-50 inhibiting CSC propagation; cited from earlier work
# [3] = test system: normal human fibroblasts (hTERT-BJ1); test: cell viability by sulphorhodamine (SRB) assay in normal fibroblasts; assay type: cell-based
# Protocol: (§2) Cell viability was assessed in MCF-7 and hTERT-BJ1 cells by sulphorhodamine (SRB) assay, based on the measurement of cellular protein content. After treatment with d-TPP (50 nM+1 μM) for 24, 48 or 72 hours, cells were fixed with 10% trichloroacetic acid (TCA) for 1 hour in cold room, and dried overnight at room temperature. Then, cells were incubated with SRB for 15 min, washed twice with 1% acetic acid, and air dried for at least 1 hour. Finally, the protein-bound dye was dissolved in 10 mM Tris pH 8.8 solution and read using a plate reader at 540 nm.
# [4] = test system: MDA-MB-231 triple negative breast cancer cells; test: mammosphere formation assay (CSC propagation) in MDA-MB-231 cells; assay type: cell-based, human
# Protocol: as §1
# MCF-7 cells [5] = test: Seahorse XFe96 metabolic flux analysis, extracellular acidification rate (ECAR); assay type: cell-based, human; settings: MCF-7, d-TPP 50 nM to 500 nM
# Protocol: (§3) The extracellular acidification rate (ECAR) and real-time oxygen consumption rate (OCR) assays for metabolic flux analysis were performed using the Seahorse Extracellular Flux (XFe-96) analyzer (Seahorse Bioscience). Briefly, 15,000 MCF-7 cells per well were seeded into XFe-96 well cell culture plates, and incubated overnight to allow attachment. Cells were then treated with increasing concentrations of d-TPP (50 nM+500 nM) for 24 hours. Vehicle alone (DMSO) control cells were processed in parallel. Then, cells were washed in pre-warmed XF assay media (or for OCR measurement, XF assay media supplemented with 10 mM glucose, 1 mM Pyruvate, 2 mM L-glutamine and adjusted at 7.4 pH). Cells were then maintained in 175 μL/well of XF assay media at 37 C, in a non-CO2 incubator for 1 hour. During the incubation time, 5 μL of 80 mM glucose, 9 μM oligomycin, and 1 M 2-deoxyglucose (for ECAR measurement) or 10 μM oligomycin, 9 μM FCCP, 10 μM Rotenone, 10 μM antimycin A (for OCR measurement), were loaded in XF assay media into the injection ports in the XFe-96 sensor cartridge. Data set was analyzed by XFe-96 software after the measurements were normalized by protein content (SRB). All experiments were performed three times independently.
# chicken embryos = test: CAM assay, embryonic tolerability; assay type: in vivo
# Protocol: (§4) Further evaluation of both efficacy and toxicity was performed on human breast tumors initiated from the MDA-MB-231 cell line in chicken embryos using the CAM Model available from Inovotion (La Tronche, France). […] With respect to the CAM assay, fertilized eggs were incubated at 37.5° C. with 50% relative humidity for 9 days. The graft was dropped into each egg through a small hole drilled through the eggshell into the air sac, and a 1 cm^2 window cut in the eggshell above the CAM. This grafting process was used for each egg in a test group. Because the grafting process is an invasive surgical act, some death is expected to occur during hours after the tumor graft. For the data reported herein, at least 10 eggs per test group were successfully grafted.
# Embryonic tolerability of the d-TPP treatments were also quantitatively evaluated. Embryonic viability was checked daily following grating and during treatment. The number of dead embryos was also counted on the final day, to evaluate treatment-induced embryo toxicity. […] It should be appreciated by those having an ordinary level of skill in the art that toxicity should be analyzed for establishing a dosing regimen.
# [6] = test system: MCF-7 breast cancer cells; test: cell viability by sulphorhodamine (SRB) assay in MCF-7 cells; assay type: cell-based; settings: Homo sapiens, MCF7, 250 nM, 500 nM and 1 μM, read-out: reduction in cell viability
# Protocol: as §2
# adherent MCF-7 cells = test: xCELLigence real-time cell analysis of cell proliferation; assay type: cell-based, human
# Protocol: The xCELLigence system was used to analyze the kinetics of d-TPP action on cell proliferation of adherent MCF-7 cells. The xCELLigence system evaluates the real-time, label-free monitoring of cell health and behavior, by measuring the electrical impedance, whose magnitude is dependent on the number of cells. Real-time cell analysis was performed for 48-hour and 72-hour treatment with d-TPP, at concentrations of 50 nM, 100 nM, and 250 nM. The control was vehicle-only. The results for the 48-hour d-TPP treatment are shown in FIGS. 8A and 8B, and FIGS. 8C and 8D show results for the 72-hour d-TPP treatment.
# The xCELLigence Real-time cell analysis (RTCA) System was sourced from ACEA Biosciences Inc. The xCELLigence RTCA system provides a useful approach for the real-time monitoring of the biological status of adherent cells, by measuring the electrical impedance, expressed as a cell index (CI) value. 5000 MCF-7 cells were seeded in a 16-well plate (E-plate). 24 hours after seeding, cells were treated with vehicle or increasing concentrations of d-TPP (from 50 nM to 250 nM) for additional 48 hours or 72 hours. RTCA was performed by measuring the cell-induced electrical impedance values, which were automatically recorded every 15 min for 96 h. This approach allows the quantification of the onset and kinetics of the cellular response. Experiments were repeated three times independently, using quadruplicate samples for each condition.
# MCF-7 cells [7] = test: Seahorse XFe96 metabolic flux analysis, oxygen consumption rate (OCR); assay type: cell-based, human
# Protocol: as §3
# [8] = test system: human breast tumors initiated from the MDA-MB-231 cell line; test: CAM assay, tumor growth and metastasis; assay type: in vivo, chicken embryos
# Protocol: as §4
# The MDA-MB-231 tumor cell line was cultivated in DMEM medium supplemented with 10% FBS and 1% penicillin/streptomycin. After the 9-day incubation period, cells were detached with trypsin, washed with complete medium, and suspended in a graft medium. An inoculum of 1.10^6 cells was added onto the CAM of each egg, and then eggs were randomized into test groups. Tumors were detectable within one day of the graft. The negative control group was a 0.125% DMSO in PBS, and d-TPP groups for concentrations of 6.25 μM, […], were evaluated. Each egg in a group was treated 8 times per day. After 8 days of treatments, tumor growth was quantitatively evaluated. The upper portion of the CAM (with the tumor) was removed, washed in a PBS buffer, and then directly transferred in PFA for a 48-hour fixation. Tumors were then carefully cut away from normal CAM tissue and weighed. For all quantitative data relating to the chicken egg evaluation, a one-way ANOVA (with post-tests between each couple of groups) was performed with the specialized computer software Prism® (GraphPad Software). For all analyses, statistical difference between groups is made visible on graphs by the presence of stars with the following meaning: no asterisk means p>0.05; * means […]; ** means 0.01≥p>0.001; and *** means 0.001≥p. […] Consistent with the evaluations described above, the d-TPP tumor growth inhibition effect was dose-dependent.
# Metastatic invasion was also quantitatively evaluated. A 1 cm^2 portion of the lower CAM was collected to evaluate the number of metastatic cells in 8 samples per group (n=8). Genomic DNA was extracted from the CAM using a commercial kit, and analyzed by qPCR with specific primers for Human Alu sequences. Calculation of Cq for each sample, mean Cq and relative amounts of metastases for each group were directly managed by the Bio-Rad® CFX Maestro software. […]
# [9] = Berberine chloride 10 μM with d-TPP 100 nM
smiles,measurement,setting,value
"O=CC[C@@H](O)[C@H](O)[C@H](O)CO [2-DG, 2-deoxy-D-glucose]",increase in the inhibitory effect of d-TPP alone,[1]; 2-DG 10 mM with d-TPP 100 nM,2 fold
same,residual mammosphere formation capability,[1]; 2-DG 20 mM with d-TPP 100 nM,< 10%
COc1ccc2cc3[n+](cc2c1OC)CCc1cc2c(cc1-3)OCO2 [Berberine chloride],reduction (CSC formation),[1]; Berberine chloride 1 μM with d-TPP 100 nM,60%
same,increase in efficacy of d-TPP,[1]; [9],~5 fold
same,inhibition of CSC formation,[1]; [9],over 80%
O=C(Nc1ccc([N+](=O)[O-])cc1Cl)c1cc(Cl)ccc1O [Niclosamide],increase in efficacy of d-TPP on CSC activity,[1]; Niclosamide 250 nM with d-TPP 100 nM,~2 fold
same,increase in efficacy of d-TPP on CSC activity,[1]; Niclosamide 500 nM with d-TPP 100 nM,~3 fold
"O=C1O[C@H]([C@@H](O)CO)C(O)=C1O [Vitamin C, Ascorbic Acid]",IC50,"[1]; Vitamin C separately (without d-TPP), read-out: IC-50 MCF-7 CSC propagation",1000 µM
same,inhibition of propagation of CSCs,[1]; Vitamin C 250 μM in combination with d-TPP at 100 nM,over 50%
same,inhibition of propagation of CSCs,[1]; Vitamin C 500 μM in combination with d-TPP at 100 nM,over 70%
same,increase in CSC sensitivity to Vitamin C caused by d-TPP,[1]; d-TPP 100 nM,~4 fold
"C(=CC[P+](c1ccccc1)(c1ccccc1)c1ccccc1)C[P+](c1ccccc1)(c1ccccc1)c1ccccc1 [b-TPP, 2-butene-1,4-bis-TPP]",IC50,[2],~0.5 µM
"CCCCCCCCCCC[P+](c1ccccc1)(c1ccccc1)c1ccccc1 [d-TPP, dodecyl-TPP]",toxicity to hTERT-BJ1 cells,[3]; 50 nM and 100 nM,no toxicity
same,cell viability of hTERT-BJ1 cells,"[3]; 250 nM, 500 nM and 1 μM",decreased
same,IC50,"[1]; MCF-7, read-out: concentration necessary to half CSC activity",~0.25 µM
same,potency in inhibiting mammosphere formation / CSC propagation compared with b-TPP (other TPP-derivatives),[1]; MCF-7,twice as potent; also recorded: more than twice as potent
same,reduction in mammosphere formation,"[1]; MCF-7, d-TPP 50 nM and 100 nM",20%
same,reduction in CSC propagation (mammosphere formation),"[1]; MCF-7, d-TPP 500 nM and 1 μM",80%
same,inhibition at 1 µM,"[4]; Homo sapiens, MDA-MB-231, d-TPP 1 μM",~80%
same,effect on CSC propagation (mammosphere formation),"[4]; MDA-MB-231, d-TPP 50 nM (lowest concentration tested)",showed an inhibitory effect
same,glycolysis (ECAR),MCF-7 cells [5],substantially and dose-dependently increased
same,embryo toxicity,chicken embryos; higher dose,resulted in mortality
same,embryo toxicity,chicken embryos; medium and low doses,did not exhibit toxicity
same,cytotoxicity at 0.25 µM,"[6]; MCF-7, 24 hours",~30%
same,cytotoxicity at 0.25 µM,"[6]; MCF-7, 72 hours",~80%
same,effect on cell number (cell index),"adherent MCF-7 cells; MCF-7, 50 nM d-TPP, 72 h treatment",trend of reduced cell number
same,effect on cell proliferation (cell index),"adherent MCF-7 cells; MCF-7, 100 nM d-TPP",main cytostatic effect
same,cytotoxicity (cell index),"adherent MCF-7 cells; MCF-7, 250 nM d-TPP",Cytotoxicity was present
same,IC50,"MCF-7 cells [7]; Homo sapiens, MCF7, MCF-7, 24 hours treatment, read-out: IC-50 basal mitochondrial respiration",~0.25 µM
same,oxygen consumption rate (OCR),"MCF-7 cells [7]; MCF-7, d-TPP 50 nM",dramatic reduction
same,ATP levels,"MCF-7 cells [7]; MCF-7, d-TPP 50 nM to 500 nM",dose-dependently depleted
same,inhibition of metastasis,[8]; 25 μM concentration,~75%
same,inhibition of tumor growth,[8]; 25 sM concentration,~40%
same,tumor growth (tumor weight) compared to the negative control,[8]; medium (25.0 μM) and high (62.5 μM) doses,significantly inhibited
same,metastatic invasion (qPCR for Alu sequences in the lower CAM) compared to the negative control,[8]; medium dose,metastasis regression
